Data: patent US11014952B2, “Stable hydrolysis-resistant synthetic polyribosylribitolphosphate derivatives as vaccines against Haemophilus influenzae type b” (MAX-PLANCK-GESELLSCHAFT ZUR FÖRDERUNG DER WISSENSCHAFTEN …, priority 2016, dated 2021)

Assays:
[1] = tested on: antibodies raised by immunization with compound 94; test: Glycan array: binding of printed saccharides to antibodies raised by immunization with compound 94; set-up: species or system rabbit; conditions: sera of rabbits immunized with conjugate 94 with and without Alhydrogel (FIG. 17C, D)
Description: Four groups with four rabbits per each group were immunized in a prime-boost regime with unadjuvanted conjugate 94 containing 5 μg saccharide 29 or conjugate 94 (containing 5 μg Hib saccharide 29) adjuvanted with Alhydrogel. The negative control group received PBS/Alhydrogel only. The positive control group received the approved vaccine ActHIB® (5 μg PRP, corresponding to half the human dose), a conjugate of native PRP to tetanus toxoid (TT). Preimmune serum and antiserum of bleeding day 21 (following two immunizations) were taken and analyzed on a glycan array. The ActHIB-specific serum was obtained after three administrations in contrast to two immunisations of the HIB analogues of the present invention.
(§1) Saccharides in PBS were printed on N-Hydroxy succinimide activated glass slides (CodeLink slides, Surmodics) using an S3 microarray spotter (Scienion). Slides were incubated overnight in a humidity saturated chamber, quenched for 2 h with 100 mM ethanolamine, 50 mM sodium phosphate, pH 7.5, washed with water and dried.
(§2) For incubation, slides were blocked for 1 h with 3% (w/v) BSA-PBS, washed with PBS and water, and dried by centrifugation. A 64 well incubation grid was attached. Sera were diluted in 3% BSA-PBS, 0.1% (v/v) Tween-20, incubated at 37° C. for 15 min, and centrifuged for 2 min at 3220 rpm. Serum dilutions were applied to the slide and incubated for 1 h at room temperature. Wells were washed three times with PBS+0.1% Tween-20 (PBS-T). Secondary antibodies (anti-rabbit IgG FITC, anti-rabbit IgM AlexaFluor 647, anti-human IgG-Fc AlexaFluor 488 and IgM AlexaFluor 594) were incubated on the slides for 30 min at r.t. Wells were washed twice with PBS-T, the incubation grid was removed, and the slide washed with PBS and water. After drying by centrifugation, the slide was scanned using a GenePix 4300A (Molecular Devices) microarray reader.
The primary immune response was assessed by glycan array screening of serum samples retrieved at day 0, day 21 and day 35. 2′-Methoxyribosylribitolphosphate dimer 19, 2′-methoxyribosylribitolphosphate dimer 24, 2′-Methoxyribosylribitolphosphate tetramer 29, 2′-deoxyribosylribitolphosphate tetramer 53 and 2′-dimethyl-aminocarbonylribosylribitolphosphate 62 as well as natural Hib PRP were printed on NHS ester-activated microarray slides. After immunization with conjugate 94 adjuvanted with Alhydrogel and without adjuvant, antibodies of the IgG and IgM subtypes against the Hib PRP derivatives 19, 24, 29, 53 and 62 as well as against the natural Hib PRP polysaccharide in all immunized rabbits were detected.

[2] = Stability in presence of aluminum hydroxide (Alhydrogel), aluminum phosphate, phosphate buffer or water, HPLC; format: physicochemical; conditions: for cleavage to smallest fragments observed after: Alhydrogel
Description: Having established the stability data of the control Hib CPS, then the stability of Hib CPS in aluminum hydroxide was investigated, where it is known to be unstable in a vaccine formulation {0.5 mg Hib CPS, 3 mL Alhydrogel® (Brentag) and 22 mL milli-Q water} at various temperatures {37° C. (A1) and rt (A3)}. At 37° C. cleavage to smallest fragments were observed after 2 days and at rt this pattern was observed after day 7 (FIG. 6). From this experiment it was confirmed that, Hib CPS decomposes to 2 and 3-O phosphate fragments in 2 to 7 days depending on temperature in Aluminum hydroxide the most common adjuvant used in commercial vaccines.
Stability studies of synthesized 2′-methoxyribosylribitolphosphate dimer 16 were conducted in presence of various adjuvants. As a first step stability of 16 was studied using Al(OH)3, AlPO4 and water at various temperatures {37° C. (A1), 2-8° C. (A2), rt (A3) and 70° C. (A4)}.
The amount of Al(OH)3 and AlPO4 used for this study was similar to the amount present in commercial Hib vaccines. Compounds 16 and 8 were used as reference since decomposition of dimer 16 should lead to monomer 8. Every 24 h 40 μL of solution was aliquoted from each vial and centrifuged for 4 min at 5000 rpm. Supernatant (25 μL) was taken for HPLC analysis. […] From this study it was clear that 2′-methoxyribosylribitol dimer 16 was stable at 37° C. (A1), 2-8° C. (A2), r.t. (A3) and at 70° C.
Stability studies of synthesized 2′-methoxyribosylribitolphosphate tetramer bearing a linker 29 were conducted in presence of various adjuvants. As a first step stability of 29 was studied using Al(OH)3, phosphate buffer (PBS) and water at various temperatures {2-8° C. (A2), and r.t. (A3)}.
The amount of Al(OH)3 used for this study was similar to the amount present in commercial Hib vaccines. Compounds 29, 16 and 8 were used as reference since decomposition of tetramer 29 should lead to dimer 16 and monomer 8. Every 24 h 40 μL of solution was aliquoted from each vial and centrifuged for 4 min at 5000 rpm. Supernatant (25 μL) was taken for HPLC analysis. […] From this study it was clear that 2′-methoxyribosylribitolphosphate tetramer 29 is stable in presence of Al(OH)3, in phosphate buffer (PBS) and in water at 2-8° C. (A2) and r.t. (A3).

[3] = Stability in basic medium (0.1 M NaOH); format: physicochemical; conditions: for cleaved completely after: aqueous basic conditions as applied in Example H-1 (0.1 M NaOH)
Description: Stability study of the inventive saccharides is critical for the development of stable liquid Hib glycoconjugate vaccines. As a control we examined first the stability and cleavage of Hib polyribosylribitolphosphate capsular polysaccharide (CPS). Accordingly, Hib CPS was fragmented using standard procedures as described in Vaccine, 2000, 18, 1982-1993: 1 mg Hib CPS in 0.43 mL of 0.1 M NaOH, 20 h. Fragments obtained after purification (filtered through 30 kDa Amicon filters followed by desalting) were analyzed by ^1H NMR, HPLC and HRMS.
The stability of dimer 16 was further investigated under aqueous basic conditions as applied in Example H-1. From the HPLC chromatogram in FIG. 13D it was concluded that dimer 16 got cleaved completely after 4 days, while the natural Hib CPS got already cleaved completely within 20 hours.
The stability of tetramer 29 was further investigated under aqueous basic conditions as applied in Example H-1. From the HPLC chromatogram in FIG. 13A it was concluded that tetramer 29 got cleaved completely after 4 days, while the natural Hib CPS got already cleaved completely within 20 hours.

[4] = tested on: anti-Hib antibodies in rabbit typing serum; test: Glycan array analysis with rabbit typing serum; format: binding; conditions: for inhibition of binding by natural Hib PRP: Hib PRP inhibitor present (FIG. 17B); for binding of anti-Hib antibodies to printed saccharide: no inhibitor (FIG. 17B)
Description: as §1, §2

[5] = tested on: anti-Hib antibodies present in human reference serum; test: Glycan array analysis with Hib human reference serum; format: binding; conditions: for inhibition of binding by natural Hib PRP: Hib PRP inhibitor present (FIG. 17A); for binding of anti-Hib antibodies to printed saccharide: no inhibitor (FIG. 17A)
Description: as §1, §2

Compound	antibodies of the IgG and IgM subtypes against the saccharide after immunization with conjugate 94 [1]	cleaved completely after ([3]; HPLC) [days]	inhibition of binding by natural Hib PRP [4]	binding of anti-Hib antibodies to printed saccharide [4]	inhibition of binding by natural Hib PRP [5]	binding of anti-Hib antibodies to printed saccharide [5]	other results
2′-Methoxyribosylribitolphosphate tetramer [Compound 29]	detected	4	inhibits the binding	bind	inhibits the binding	bind	stability ([2]; Al(OH)3, phosphate buffer (PBS) and water, 2-8° C. (A2)): stable; decomposition after 7 days (HPLC) ([2]; Al(OH)3, phosphate buffer (PBS) and water, 2-8° C. and r.t.): no decomposition was observed; stability ([2]; Al(OH)3, phosphate buffer (PBS) and water, r.t. (A3)): stable
2′-deoxyribosylribitolphosphate tetramer [Compound 53]	detected	–	not	bind	not	bind	–
COC1C(O)[C@@H](CO)O[C@H]1OCC(O)C(O)C(O)COP(=O)(O)OC1C(OC)[C@H](OCC(O)C(O)C(O)CO)O[C@@H]1CO (stereo partly drawn) [Compound 16, 2′-methoxyribosylribitolphosphate dimer]	–	4	–	–	–	–	stability ([2]; Al(OH)3, AlPO4 and water, 2-8° C. (A2), 7 days): stable; stability ([2]; Al(OH)3, AlPO4 and water, 37° C. (A1), 7 days): stable; decomposition after 7 days (HPLC) ([2]; Al(OH)3, AlPO4 and water, 37° C., 2-8° C., rt and 70° C.): no decomposition was observed; stability ([2]; Al(OH)3, AlPO4 and water, 70° C., 7 days): stable; stability ([2]; Al(OH)3, AlPO4 and water, r.t. (A3), 7 days): stable
COC1C(O)[C@@H](CO)O[C@H]1OCC(O)C(O)C(O)COP(=O)(O)OC1C(OC)[C@H](OCC(O)C(O)C(O)COP(=O)(O)OCCCCCN)O[C@@H]1CO (stereo partly drawn) [Compound 19, 2′-Methoxyribosylribitolphosphate dimer]	detected	–	inhibits the binding	bind	inhibits the binding	bind	–
COC1C(OP(=O)(O)OCCCCCN)[C@@H](CO)O[C@H]1OCC(O)C(O)C(O)COP(=O)(OCc1ccccc1)OC1C(OC)[C@H](OCC(O)C(O)C(O)CO)O[C@@H]1CO (stereo partly drawn) [Compound 24, 2′-methoxyribosylribitolphosphate dimer]	detected	–	inhibits the binding	bind	inhibits the binding	bind	–
Hib polyribosylribitolphosphate capsular polysaccharide [Hib CPS, reference compound]	detected	–	–	–	–	–	cleavage to smallest fragments observed after ([2]; 37° C.): 2 days; cleavage to smallest fragments observed after ([2]; rt): 7 days; cleavage products in basic medium ([3]; 0.1 M NaOH, 20 h, 1H NMR, HPLC, HRMS): cleaved to its smallest 2 and 3-0 phosphate fragments; time to complete hydrolysis / cleavage under basic conditions ([3]; 0.1 M sodium hydroxide solution): ≤ 20 h; stability in basic aqueous media or in the presence of aluminum salts ([3]; basic aqueous media, suspensions with aluminum phosphate or aluminum hydroxide): hydrolyzes within one day
